Assay results: PubChem BioAssay (NCI)
“And” between values parts separate entries of the source, which are not always exact repeats. Equal values may be shown once.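 Compound exposure: 48 hours, 5 concentrations, 96-well plates. GI50 marks 50% less growth. TGI is the concentration that stops growth completely.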

Columns and labels:
Assay in all cases: growth of human tumour cells (NCI), 48 h
CCRF-CEM leukemia = test system: CCRF-CEM leukemia
DU-145 prostate = test system: DU-145 prostate
HL-60(TB) leukemia = test system: HL-60(TB) leukemia
NCI-H226 lung = test system: NCI-H226 lung
OVCAR-4 ovarian = test system: OVCAR-4 ovarian
RXF 393 renal = test system: RXF 393 renal
SF-295 CNS = test system: SF-295 CNS
SK-MEL-2 melanoma = test system: SK-MEL-2 melanoma
SK-OV-3 ovarian = test system: SK-OV-3 ovarian
UACC-257 melanoma = test system: UACC-257 melanoma

## CCCN(CCC)C(=O)[C@H](CC)[C@@H]1CC[C@@H](C)[C@@H]([C@H](C)[C@@H](O)[C@@H](C)C(=O)[C@H](CC)C2O[C@]3(C=C[C@@H](O)[C@]4(CC[C@@](C)([C@H]5CC[C@](O)(CC)[C@H](C)O5)O4)O3)[C@H](C)C[C@@H]2C)O1 (some centres undefined)
CCRF-CEM leukemia
  GI50: 2.78 µM
  TGI: 8.83 µM
DU-145 prostate
  GI50: 2.05 µM
  TGI: 4.21 µM
HL-60(TB) leukemia
  GI50: 2.26 µM
  TGI: 5.54 µM
NCI-H226 lung
  GI50: 1.93 µM
  TGI: 5.3 µM
OVCAR-4 ovarian
  GI50: 2.95 µM
  TGI: 13.2 µM
RXF 393 renal
  GI50: 1.71 µM
  TGI: 4.04 µM
SF-295 CNS
  GI50: 2.45 µM
  TGI: 8.91 µM
SK-MEL-2 melanoma
  GI50: 2.43 µM
  TGI: 6.63 µM
SK-OV-3 ovarian
  GI50: 3.29 µM
  TGI: 19.9 µM
UACC-257 melanoma
  GI50: 2.84 µM
  TGI: 9.83 µM

## COc1cccc2c(=O)c3c(sc12)c(NCCN(C)C)nc1ccccc13
CCRF-CEM leukemia
  GI50: 1.34 µM
  TGI: 2.97 µM
DU-145 prostate
  GI50: 1.68 µM
  TGI: 3.17 µM
HL-60(TB) leukemia
  GI50: 1.64 µM
  TGI: 3.42 µM
NCI-H226 lung
  GI50: 1.75 µM
  TGI: 4.03 µM
OVCAR-4 ovarian
  GI50: 1.57 µM
  TGI: 3.68 µM
RXF 393 renal
  GI50: 1.29 µM
  TGI: 2.65 µM
SF-295 CNS
  GI50: 1.65 µM
  TGI: 3.42 µM
SK-MEL-2 melanoma
  GI50: 1.84 µM
  TGI: 3.82 µM
UACC-257 melanoma
  GI50: 1.72 µM
  TGI: 3.5 µM

## CC1=C(C(=O)Nc2ccc(F)c(Cl)c2)C(c2cccc(Oc3ccccc3)c2)NC(=O)N1 (centres undefined)
CCRF-CEM leukemia
  GI50: 10.4 µM
  TGI: 26.4 µM
DU-145 prostate
  GI50: 13.4 µM
  TGI: 26.4 µM
HL-60(TB) leukemia
  GI50: 8.07 µM
  TGI: 24.7 µM
NCI-H226 lung
  GI50: 16.2 µM
  TGI: 37.4 µM
RXF 393 renal
  GI50: 14.4 µM
  TGI: 32.1 µM
SF-295 CNS
  GI50: 22.1 µM
  TGI: 57 µM
SK-MEL-2 melanoma
  GI50: 17.2 µM
  TGI: 32.4 µM
SK-OV-3 ovarian
  GI50: 18 µM
  TGI: 32.7 µM
UACC-257 melanoma
  GI50: 18 µM
  TGI: 34.9 µM

## Cc1nn(-c2nc3ccccc3[nH]2)c2c1C(c1ccc3c(c1)OCO3)CC(=O)N2 (centres undefined)
CCRF-CEM leukemia
  GI50: 1.94 µM
  TGI: > 24.7 µM
DU-145 prostate
  GI50: 3.23 µM
  TGI: 9.12 µM
HL-60(TB) leukemia
  GI50: 2.84 µM
  TGI: 7.74 µM
NCI-H226 lung
  GI50: 2.45 µM
  TGI: 7.09 µM
OVCAR-4 ovarian
  GI50: 3.51 µM
  TGI: > 87.4 µM
RXF 393 renal
  GI50: 2.47 µM
  TGI: 6.26 µM
SF-295 CNS
  GI50: 1.81 µM
  TGI: 4.38 µM
SK-MEL-2 melanoma
  GI50: 2.82 µM
  TGI: 6.96 µM
SK-OV-3 ovarian
  GI50: 2.63 µM
  TGI: 5.77 µM
UACC-257 melanoma
  GI50: 2.41 µM
  TGI: 6.96 µM

## Clc1ccc2c(c1)-c1ccccc1C1=NCCN12
CCRF-CEM leukemia
  GI50: 1.7 µM
  TGI: 4.08 µM
DU-145 prostate
  GI50: 2.02 µM
  TGI: 4.62 µM
HL-60(TB) leukemia
  GI50: 2.43 µM
  TGI: 5.47 µM
NCI-H226 lung
  GI50: 1.45 µM
  TGI: 3.53 µM
OVCAR-4 ovarian
  GI50: 1.99 µM
  TGI: 7.35 µM
RXF 393 renal
  GI50: 1.51 µM
  TGI: 2.98 µM
SF-295 CNS
  GI50: 2.12 µM
  TGI: 6.34 µM
SK-MEL-2 melanoma
  GI50: 2.02 µM
  TGI: 3.89 µM
SK-OV-3 ovarian
  GI50: 2.68 µM
  TGI: 8.64 µM
UACC-257 melanoma
  GI50: 1.54 µM
  TGI: 3.3 µM

## COc1ccc(/C=C/C(=O)c2cc3c(N)c(C(=O)Nc4ccccc4)sc3nc2C)cc1
CCRF-CEM leukemia
  GI50: 0.184 µM
  TGI: > 28.7 µM
DU-145 prostate
  GI50: 0.19 µM
  TGI: > 22.9 µM
HL-60(TB) leukemia
  GI50: 0.119 µM
  TGI: 0.342 µM
NCI-H226 lung
  GI50: 0.55 µM
  TGI: 7.28 µM
OVCAR-4 ovarian
  GI50: 0.472 µM
  TGI: > 50 µM
RXF 393 renal
  GI50: 0.114 µM
  TGI: 2.31 µM
SF-295 CNS
  GI50: 0.232 µM
  TGI: > 50 µM
SK-MEL-2 melanoma
  GI50: 0.422 µM
  TGI: > 50 µM
SK-OV-3 ovarian
  GI50: 0.248 µM
  TGI: > 50 µM
UACC-257 melanoma
  GI50: 18 µM
  TGI: > 50 µM

## N#C[S-].[Au+].c1ccc(CN2[CH-]N(Cc3ccccc3)C(c3ccccc3)=C2c2ccccc2)cc1
DU-145 prostate
  GI50: 0.479 µM
  TGI: 1.69 µM
HL-60(TB) leukemia
  GI50: 0.414 µM
  TGI: 2.34 µM
OVCAR-4 ovarian
  GI50: 0.413 µM
  TGI: 2.1 µM
RXF 393 renal
  GI50: 0.546 µM
  TGI: 1.86 µM
SK-MEL-2 melanoma
  GI50: 0.337 µM
  TGI: 1.26 µM
SK-OV-3 ovarian
  GI50: 0.391 µM
  TGI: 3.63 µM

## CS(=O)(=O)Nc1cc(-c2ccc3ncnc(Nc4ccc5c(cnn5Cc5ccccc5F)c4)c3c2)cnc1Cl
CCRF-CEM leukemia
  GI50: 0.634 µM
  TGI: > 31.2 µM
DU-145 prostate
  GI50: 2 µM
  TGI: > 38.2 µM
HL-60(TB) leukemia
  GI50: 1.02 µM
  TGI: 6.02 µM
NCI-H226 lung
  GI50: 1.74 µM
  TGI: 11.3 µM
OVCAR-4 ovarian
  GI50: 3 µM
  TGI: > 100 µM
RXF 393 renal
  GI50: 1.41 µM
  TGI: 5.85 µM
SF-295 CNS
  GI50: 1.96 µM
  TGI: 8.51 µM
SK-MEL-2 melanoma
  GI50: 1.52 µM
  TGI: 4.65 µM
SK-OV-3 ovarian
  GI50: 0.845 µM
  TGI: 3.96 µM
UACC-257 melanoma
  GI50: 1.51 µM
  TGI: 9 µM

## Clc1nc(Cl)c(Cc2ccccc2)c(Cl)n1
CCRF-CEM leukemia
  TGI: > 100 µM
DU-145 prostate
  TGI: 28.7 µM
HL-60(TB) leukemia
  TGI: > 100 µM
NCI-H226 lung
  TGI: 32.4 µM
OVCAR-4 ovarian
  TGI: 29.4 µM
RXF 393 renal
  TGI: 11.1 µM
SF-295 CNS
  TGI: 32 µM
SK-MEL-2 melanoma
  TGI: > 100 µM
SK-OV-3 ovarian
  TGI: 28.9 µM

## CNc1nc(N(C)C)nc(N(C)C)n1
CCRF-CEM leukemia
  GI50: > 100 µM and 4060 µM
  TGI: > 100 µM and 6600 µM
DU-145 prostate
  TGI: 5040 µM
HL-60(TB) leukemia
  GI50: > 100 µM and 2350 µM
  TGI: > 100 µM and 4200 µM
NCI-H226 lung
  TGI: 2530 µM
OVCAR-4 ovarian
  GI50: > 100 µM and 431 µM
  TGI: > 100 µM and 1260 µM
RXF 393 renal
  GI50: > 100 µM and 975 µM
  TGI: > 100 µM and 3070 µM
SF-295 CNS
  GI50: > 100 µM and 1130 µM
  TGI: > 100 µM and 2440 µM
SK-MEL-2 melanoma
  GI50: > 100 µM and 2150 µM
  TGI: > 100 µM and 4820 µM
SK-OV-3 ovarian
  GI50: > 100 µM and 1390 µM
  TGI: > 100 µM and 3640 µM
UACC-257 melanoma
  GI50: > 100 µM and 1640 µM
  TGI: > 100 µM and 3580 µM

## N#CC1=C(N)Oc2c(sc3c(F)cccc23)C1c1ccc(F)cc1 (centres undefined)
CCRF-CEM leukemia
  GI50: 0.47 µM
  TGI: 25.3 µM
DU-145 prostate
  GI50: 1.79 µM
  TGI: 12.9 µM
HL-60(TB) leukemia
  GI50: 0.284 µM
  TGI: 2.74 µM
NCI-H226 lung
  GI50: 1.71 µM
  TGI: 15.8 µM
OVCAR-4 ovarian
  GI50: 2.03 µM
  TGI: 16.6 µM
RXF 393 renal
  GI50: 1.07 µM
  TGI: 6.31 µM
SF-295 CNS
  GI50: 0.364 µM
  TGI: 6.28 µM
SK-MEL-2 melanoma
  GI50: 0.982 µM
  TGI: 18.6 µM
SK-OV-3 ovarian
  GI50: 1.61 µM
  TGI: 19.7 µM
UACC-257 melanoma
  GI50: 16.6 µM
  TGI: 39.5 µM

## Cc1ccc(S(=O)(=O)Nc2nc3ccccc3nc2Nc2ccc3nsnc3c2)cc1
CCRF-CEM leukemia
  GI50: 3.32 µM and 2.93 µM
  TGI: > 100 µM
DU-145 prostate
  GI50: 5.04 µM and 4.45 µM
  TGI: > 100 µM
HL-60(TB) leukemia
  GI50: 2.96 µM and 2.86 µM
  TGI: 14 µM and > 30 µM
NCI-H226 lung
  GI50: 5.38 µM and 7.55 µM
  TGI: > 100 µM
OVCAR-4 ovarian
  GI50: 3.13 µM
  TGI: > 100 µM
RXF 393 renal
  GI50: 6.92 µM and 7.73 µM
  TGI: 35.1 µM and > 100 µM
SF-295 CNS
  GI50: 2.98 µM and 2.36 µM
  TGI: 15.7 µM and 13.3 µM
SK-MEL-2 melanoma
  GI50: 2.87 µM and 3.22 µM
SK-OV-3 ovarian
  GI50: 4.76 µM
  TGI: > 100 µM
UACC-257 melanoma
  GI50: 3.56 µM and 2.87 µM
  TGI: 27.7 µM and > 100 µM

## O=C(/C=C/c1ccc(C(F)(F)F)cc1)c1ccc(Nc2nc(NCCO)nc(N3CCOCC3)n2)cc1
CCRF-CEM leukemia
  GI50: 2.41 µM
  TGI: 6.61 µM
DU-145 prostate
  GI50: 2.19 µM
  TGI: 4.58 µM
HL-60(TB) leukemia
  GI50: 2.92 µM
  TGI: 8.64 µM
NCI-H226 lung
  GI50: 2.32 µM
  TGI: 5.89 µM
OVCAR-4 ovarian
  GI50: 3.05 µM
  TGI: 10.2 µM
RXF 393 renal
  GI50: 1.63 µM
  TGI: 3.26 µM
SF-295 CNS
  GI50: 2.67 µM
  TGI: 7.6 µM
SK-MEL-2 melanoma
  GI50: 8.66 µM
  TGI: 21.5 µM
SK-OV-3 ovarian
  GI50: 3.82 µM
  TGI: > 100 µM
UACC-257 melanoma
  GI50: 3.98 µM
  TGI: 17.8 µM
